# In US20240166690A1, “MULTI-TARGET CY[…] FOR OPIOID/NEUROPEPTIDE FF RECEPTORS, AND PREPARATION THEREFOR AND APPLICATION THEREOF” (SHANGHAI TIANCI LIFE SCIENCE DEVELOPMENT CO., LTD., priority 2021, published 2024):
# Bridge positions count the residues as written; N and C are the ends. Square brackets hold non-standard residues; d marks the D form. Peptide text beside a SMILES is read from it. NMeF = CN[C@@H](Cc1ccccc1)C(=O)O; dOrn = NCCC[C@@H](N)C(=O)O
# Experiments:
# [1] = target: T1, NPFF1 receptor (Homo sapiens, UniProt Q9GZQ6); assay: cAMP functional experiment, NPFF1 receptor (forskolin-induced cAMP accumulation); format: cell-based
# T1 construct: expressed in transfected cells; host or cells: HEK293
# Experimental: The agonistic activity of the cyclopeptide molecule of the present invention against Mu-opioid receptor, Delta-opioid receptor, Kappa-opioid receptor, NPFF1 receptor and NPFF2 receptor was evaluated by detecting the regulation of the cyclopeptide molecule of the present invention on the intracellular accumulation of cyclic adenosine monophosphate (cAMP) induced by Forskolin in HEK293 cells stably expressing these five receptors. The experimental method was: the cells were seeded in 24 well plates with 120000 cells per well, and were cultured for more than 20 hours. At the beginning of the experiment, the culture medium in the culture dish was suck out, and then 500 μL of preheated serum-free medium containing 1 mM of IBMX was added, the mixture was incubated at 37° C. for 10 minutes. Then each 10 μL of the drug to be tested and 10 μM of forskolin (final concentration) were added to each well. The mixture was incubated at 37° C. for 30 minutes. After incubation, all the liquid was suck out from the culture dish, 500 μL of 0.2 N hydrochloric acid was added to each well, the mixture was incubated at room temperature for 30 minutes to promote cell lysis. After lysis was complete, NaOH was added to neutralize the hydrochloric acid solution used for lysis. Then all the liquid was suck out from the culture dish into centrifuge tubes, the liquid was centrifuged at 12000 rpm for 2 minutes. 50 μL was taken to a clean centrifuge tube, 100 μL of 60 μg/μL PKA was added, and 100 μL of TE cAMP buffer was added to the blank control group (B). Another 50 μL of 0.5 μ Ci[^3H]cAMP was added to each of the above centrifuge tubes, the mixture was quickly mixed and incubated at 4° C. for more than 2 hours. After incubation, another 100 μL of activated carbon suspension was added to each tube, the mixture was vortex agitated evenly, placed in an ice bath for 1 minute, centrifuged at 5000 rpm for 4 minutes. 200 μL of supernatant after centrifugation in each tube was suck out to a 24 well plate, with an additional 700 μL of scintillator liquid added per well, then the 24 well plate was sealed with adhesive film, placed for 3 hours, then placed on the scintillation instrument for measurement.
# The inhibitory effect of cAMP was represented by the percentage (% control) of drug inhibition of intracellular cAMP accumulation induced by Forskolin, wherein % control=(cAMP content when treated with Forskolin−cAMP content when Forskolin co-treated with the test drug)/(cAMP content when treated with Forskolin−cAMP content when treated with solvent). The related % control data was represented by mean±S.E.M. The dose-effect relationship of the drug was statistically analyzed using a nonlinear regression model, and the IC50 values of the multi-target cyclopeptide molecule on inhibition of Forskolin induced intracellular cAMP accumulation were calculated using the statistical software GraphPad Prism version 5.0.
# [2] = Constipation side effect assay (gastrointestinal motility, activated carbon); format: in vivo, mice; details: male, Kunming, mouse, in vivo; oral injection, mice; read-out: ED50 of gastrointestinal inhibition
# Experimental: (§1) 26±2 g Kunming male mice were selected. First, the mice were starved and placed in a box without padding. The mice were not allowed to eat, but could drink water freely. The mice were starved for 16 hours then weighted, and administered orally (p.o.). After 15 minutes of administration, pre-prepared activated carbon suspension (a physiological saline suspension containing 5% activated carbon and 10% arabic gum) was orally infused into the stomach at a volume of 0.1 mL/10 g. After 30 minutes of gavage, the mice were sacrificed through cervical dislocation. The mice were dissected immediately and the entire length of the small intestine was taken from the pylorus of the stomach to the cecum. Then the total length of the small intestine and the length of carbon powder movement were measured.
# (§2) The experimental data of gastrointestinal motility was represented by a percentage of gastrointestinal motility, and the specific calculation method was represented by a percentage of the distance the carbon powder moved divided by the total length of the small intestine. The data was represented by the mean±S.E.M. of the percentage of gastrointestinal motility, and the differences between compounds and saline were analyzed using one-way ANOVA (Dunnett test). *P<0.05, **P<0.01, and ***P<0.001indicated significance of the difference between only saline injected and related compounds injected.
# [3] = test system: Kunming male mice; assay: as above; format: in vivo; details: oral; for side effect of constipation: effective dose range of analgesia
# Experimental: as §1, §2
# [4] = test system: Kunming male mice; assay: Open field test (locomotor activity); format: in vivo; details: oral, 1000 μg/kg of compound 1, 100 μg/kg of compound 11; for locomotor distance: within 150 minutes, saline 131.1±33.93 m
# Experimental: Open field test was consisted of an uncapped 50×50×40 cm black organic glass box and a set of motion monitoring system. 21±2 g Kunming male mice were selected for the experiment. The room temperature was controlled between 22±1° C., otherwise, high or low temperatures would affect the movement of the mice. Before the experiment began, the box was wipped with alcohol to remove the odor inside and avoid the odor from affecting the locomotor activity of the next mouse. Before the experiment, the basic locomotor activity of the mouse in 30 minutes was recorded, followed by oral (p.o.) injection of physiological saline, 1000 μg/kg of compound 1, and 100 μg/kg of compound 11. The locomotor activity of mice within 150 minutes was recorded. The locomotor activity of mouse was represented by the total distance traveled, which is the total distance±S.E.M. The difference between the compound group and saline control group was statistically analyzed using one-way ANOVA (Bonferroni test). *P<0.05, **P<0.01, and ***P<0.001 indicated significance of difference between saline and compound.
# [5] = test system: mice; assay: Naloxone withdrawal experiment (number of jumps); format: in vivo; details: for number of jumps: escalating doses every 8 hours, naloxone 10 mg/kg i.p., 30 minutes, saline 5; for withdrawal symptoms versus saline: oral, low and high doses
# Experimental: The naloxone withdrawal test is a classic experiment for evaluating drug physiological addiction. The experimental method is based on Venetia Zachariou (2003). […] High doses of compound 11 were also administered with doses of 20, 40, 60, 80, 100, 100, and 100 μg/kg, respectively. Two hours after the last administration, mice were intraperitoneally injected with 10 mg/kg of naloxone. Then the mouse was immediately placed in an opaque barrel-shaped structure with an inner diameter of 9 cm and a height of 32 cm, and the number of jumps in mice within 30 minutes was recorded. The experimental results were represented by the number of jumps in mice, which is the number of jumps±S.E.M. The difference between the compound group and saline control group was statistically analyzed using one-way ANOVA (Bonferroni test). *P<0.05, **P<0.01, and ***P<0.001 indicated significance of differences between saline and compound.
# T1 sequence (Q9GZQ6 whole entry): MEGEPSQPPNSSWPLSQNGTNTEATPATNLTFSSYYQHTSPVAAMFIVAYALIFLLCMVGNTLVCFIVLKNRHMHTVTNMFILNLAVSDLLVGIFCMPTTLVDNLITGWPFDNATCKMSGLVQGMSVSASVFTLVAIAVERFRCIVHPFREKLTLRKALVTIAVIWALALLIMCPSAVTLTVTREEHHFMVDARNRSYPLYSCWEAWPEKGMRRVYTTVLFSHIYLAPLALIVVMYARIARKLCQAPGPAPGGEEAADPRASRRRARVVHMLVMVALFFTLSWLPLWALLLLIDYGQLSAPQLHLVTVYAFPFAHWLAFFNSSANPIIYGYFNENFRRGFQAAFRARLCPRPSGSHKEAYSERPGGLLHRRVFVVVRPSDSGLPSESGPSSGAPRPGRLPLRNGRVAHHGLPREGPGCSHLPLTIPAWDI
SMILES,IC50 [1],ED50 at 45 min [2],ED50 of gastrointestinal inhibition relative to analgesic ED50 [3],side effect of constipation [3],locomotor activity versus saline [4],locomotor distance [4],number of jumps ([5]; high-dose oral),number of jumps ([5]; low-dose oral),withdrawal symptoms versus saline [5]
"CN1C(=O)CNC(=O)[C@H](NC(=O)[C@@H](N)Cc2ccc(O)cc2)CCCCNC(=O)C[C@@H](C(=O)N2CCC[C@H]2C(=O)N[C@@H](CCC(N)=O)C(=O)N[C@@H](CCCNC(=N)N)C(=O)N[C@@H](Cc2ccccc2)C(N)=O)NC(=O)[C@@H]1Cc1ccccc1 [Compound 1, Tyr-c[D-Lys-Gly-NMe-Phe-Asp]-Pro-Gln-Arg-Phe-NH2] (H-Y[dK]G[NMeF]DPQRF-NH2; lactam 2-5)",104 nM,37.1 mg/kg,27044 times,no side effect of constipation within the effective dose range of analgesia,no change in the locomotor activity,109.4±32.16 m,1,1,did not show withdrawal symptoms
"CN1C(=O)CNC(=O)[C@H](NC(=O)[C@@H](N)Cc2ccc(O)cc2)CCCNC(=O)CC[C@@H](C(=O)N2CCC[C@H]2C(=O)N[C@@H](CCC(N)=O)C(=O)N[C@@H](CCCNC(=N)N)C(=O)N[C@@H](Cc2ccccc2)C(N)=O)NC(=O)[C@@H]1Cc1ccccc1 [Compound 11, Tyr-c^[2,5][D-Orn-Gly-NMe-Phe-Glu]-Pro-Gln-Arg-Phe-NH2] (H-Y[dOrn]G[NMeF]EPQRF-NH2; lactam 2-5)",42.9 nM,1.24 mg/kg,8850 times,no side effect of constipation within the effective dose range of analgesia,no change in the locomotor activity,127.9±23.49 m,4,9,did not show withdrawal symptoms
